Calls of active or inactive are those of the source. The calls are words filed in the database; no cut-off is given here.
How the values were obtained:
[1] = biological target: T1, Alpha-galactosidase A (Homo sapiens) (UniProt P06280); assay: (§1) Stabilization of human recombinant alpha-galactosidase A using 4-MU-alpha-d-galactopyranoside as substrate assessed as inhibition of thermal-induced denaturation preincubated for 10 to 30 mins followed by substrate addition and measured after 15 mins by fluorescence assay
T1 sequence (whole entry): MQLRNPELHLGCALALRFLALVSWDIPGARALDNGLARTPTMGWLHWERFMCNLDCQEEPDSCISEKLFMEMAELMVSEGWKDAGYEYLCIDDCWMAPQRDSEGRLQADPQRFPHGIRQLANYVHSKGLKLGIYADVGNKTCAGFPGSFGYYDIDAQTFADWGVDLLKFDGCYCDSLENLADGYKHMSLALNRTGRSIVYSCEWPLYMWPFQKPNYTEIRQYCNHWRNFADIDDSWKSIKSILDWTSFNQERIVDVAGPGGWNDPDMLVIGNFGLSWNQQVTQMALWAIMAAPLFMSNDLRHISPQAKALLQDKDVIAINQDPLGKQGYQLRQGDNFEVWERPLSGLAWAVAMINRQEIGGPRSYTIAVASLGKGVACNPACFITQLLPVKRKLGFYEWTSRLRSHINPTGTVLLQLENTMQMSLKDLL

[2] = biological target: T1, Alpha-galactosidase A (Homo sapiens); assay: as §1, with “denaturation at 100 uM” for “denaturation”, “assay relative to control” for “assay”; design: scale not given: the % may be the effect or the level left
Alpha-galactosidase A = biological target: T2, Alpha-galactosidase A (Homo sapiens, UniProt P06280); assay: Competitive inhibition of human recombinant alpha-galactosidase A using 4-MU-alpha-d-galactopyranoside as substrate by Lineweaver-Burk plot method
T2 sequence (P06280 whole entry): T1 sequence (whole entry)

[3] = biological target: T3, Beta-galactosidase (Homo sapiens) (UniProt P16278); assay: Inhibition of human beta-galactosidase at 100 uM using 4-MU-beta-d-galactoside as substrate by fluorescence assay
T3 sequence (whole entry): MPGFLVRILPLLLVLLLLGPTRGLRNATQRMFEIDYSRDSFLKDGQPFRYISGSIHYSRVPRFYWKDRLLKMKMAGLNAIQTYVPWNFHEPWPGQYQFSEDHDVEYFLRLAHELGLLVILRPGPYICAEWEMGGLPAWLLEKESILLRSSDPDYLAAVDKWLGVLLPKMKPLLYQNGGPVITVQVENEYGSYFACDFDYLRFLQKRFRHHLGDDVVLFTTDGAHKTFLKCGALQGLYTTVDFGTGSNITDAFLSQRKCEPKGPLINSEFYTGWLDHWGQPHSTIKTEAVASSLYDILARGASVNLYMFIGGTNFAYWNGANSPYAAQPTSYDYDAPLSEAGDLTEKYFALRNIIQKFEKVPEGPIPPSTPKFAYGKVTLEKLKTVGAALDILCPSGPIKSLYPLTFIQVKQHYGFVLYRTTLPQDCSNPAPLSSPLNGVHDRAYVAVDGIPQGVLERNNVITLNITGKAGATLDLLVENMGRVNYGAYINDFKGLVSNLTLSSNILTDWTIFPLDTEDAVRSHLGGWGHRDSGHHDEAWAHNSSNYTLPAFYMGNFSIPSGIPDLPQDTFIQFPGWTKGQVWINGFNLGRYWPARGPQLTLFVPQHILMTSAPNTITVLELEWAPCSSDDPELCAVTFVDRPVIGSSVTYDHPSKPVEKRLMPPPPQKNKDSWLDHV

[4] = biological target: T1, Alpha-galactosidase A (Homo sapiens); assay: Stabilization of human recombinant alpha-galactosidase A using 4-MU-alpha-d-galactopyranoside as substrate assessed as inhibition of thermal-induced denaturation at 100 uM preincubated for 10 to 30 mins followed by substrate addition and measured after 15 mins by fluorescence assay

| SMILES | Activity [2] | inhibition [3] | Activity [4] | other results |
| --- | --- | --- | --- | --- |
| NC[C@H]1NC[C@H](O)[C@@H](O)[C@H]1O | – | – | – | Activity [1]: Dose-dependent effect |
| O=C(/C=C/c1cccc(Br)c1)NC[C@H]1NC[C@H](O)[C@@H](O)[C@H]1O | – | – | – | Ki (Alpha-galactosidase A): 3.5 µM |
| NC[C@@H]1NC[C@H](O)[C@H](O)[C@H]1O | – | inactive | inactive | – |
| NC[C@@H]1NC[C@H](O)[C@@H](O)[C@H]1O | – | inactive | inactive | – |
| NC[C@H]1NC[C@H](O)[C@H](O)[C@H]1O | – | inactive | inactive | – |

Continued, in another order:

| Activity [2] | inhibition [3] | Activity [4] | SMILES | other results |
| --- | --- | --- | --- | --- |
| > 75% | – | – | O=C(CCC1CCCC1)NC[C@H]1NC[C@H](O)[C@@H](O)[C@H]1O | – |
| > 75% | – | – | O=C(CCCCC1CCCCC1)NC[C@H]1NC[C@H](O)[C@@H](O)[C@H]1O | – |
| > 75% | – | – | COc1ccc(Br)cc1/C=C/C(=O)NC[C@H]1NC[C@H](O)[C@@H](O)[C@H]1O | – |
| > 75% | – | – | O=C(/C=C/c1ccc(C(F)(F)F)cc1)NC[C@H]1NC[C@H](O)[C@@H](O)[C@H]1O | – |
| > 75% | – | – | CC(C)=CCCC(C)CC(=O)NC[C@H]1NC[C@H](O)[C@@H](O)[C@H]1O (stereo partly drawn) | – |

— ChEMBL document CHEMBL4145459, “Synthesis of (3S,4S,5S)-trihydroxylpiperidine derivatives as enzyme stabilizers to improve therapeutic enzyme activity in Fabry patient cell lines” (Eur J Med Chem, 2018)
